According to PubChem BioAssay (NCI):
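48-hour exposure; five concentrations; linearly interpolated endpoints. Abbreviation: GI50, concentration required for 50% inhibition of growth. TGI is the concentration that stops growth completely.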

Assays:
Test in all cases: NCI-60 cell line screen, 48 h
A498 renal = test system: A498 renal
NCI-H522 lung = test system: NCI-H522 lung
U251 CNS = test system: U251 CNS
HCT-116 colon = test system: HCT-116 colon
RPMI-8226 leukemia = test system: RPMI-8226 leukemia
SR leukemia = test system: SR leukemia
UACC-62 melanoma = test system: UACC-62 melanoma
M14 melanoma = test system: M14 melanoma
SK-MEL-5 melanoma = test system: SK-MEL-5 melanoma
CCRF-CEM leukemia = test system: CCRF-CEM leukemia

| SMILES | TGI (A498 renal) [µM] | TGI (NCI-H522 lung) [µM] | TGI (U251 CNS) [µM] | TGI (HCT-116 colon) [µM] | TGI (RPMI-8226 leukemia) [µM] | TGI (SR leukemia) [µM] | TGI (UACC-62 melanoma) [µM] | TGI (M14 melanoma) [µM] | TGI (SK-MEL-5 melanoma) [µM] | TGI (CCRF-CEM leukemia) [µM] | GI50 (A498 renal) [µM] | GI50 (NCI-H522 lung) [µM] | GI50 (U251 CNS) [µM] | GI50 (RPMI-8226 leukemia) [µM] | GI50 (SR leukemia) [µM] | GI50 (M14 melanoma) [µM] | GI50 (CCRF-CEM leukemia) [µM] | GI50 (HCT-116 colon) [µM] | GI50 (UACC-62 melanoma) [µM] | GI50 (SK-MEL-5 melanoma) [µM] |
| --- | --- | --- | --- | --- | --- | --- | --- | --- | --- | --- | --- | --- | --- | --- | --- | --- | --- | --- | --- | --- |
| COC(=O)C1C(=O)C(C(=O)OC)C2CCC1N2C (stereo not drawn) | > 100 | > 100 | > 100 | > 83.2 | > 100 | > 100 | > 100 | > 100 | > 100 | > 78.1 |  |  |  |  |  |  |  |  |  |  |
| CCCCNC(=O)CC1=C(C)/C(=C/c2[nH]c(-c3ccc[nH]3)cc2OC)N=C1C | 7.43 | 4.89 | 12.1 |  | 4.43 | 5.43 |  | 3.91 |  | 8.88 | 2.54 | 1.8 | 2.86 | 1.95 | 1.87 | 1.83 | 1.71 |  |  |  |
| Cc1ncnc2c1ccn2[C@@H]1C[C@H](Oc2cc(C(F)F)c(F)c3c2CNCC3)[C@@H](O)[C@H]1O | > 100 | > 100 | > 100 | > 100 | > 100 | > 100 | > 100 | > 100 | > 100 | > 100 | > 100 | > 100 | > 100 | > 100 | > 100 | > 100 | > 100 | > 100 | > 100 | > 100 |
| CN(C)Cc1ccc(O)c(CN(C)C)n1 | > 100 | > 100 | > 100 | > 100 | > 100 | > 100 | > 100 | > 100 | > 100 |  |  |  |  |  |  |  |  |  |  |  |
| CCNCCS(=O)(=O)NC[C@@]1(c2ccccc2)SC(NC(=O)C(C)(C)C)=NN1C(=O)C(C)(C)C | 53.4 | < 0.01 | > 100 | > 100 | > 100 | 22.3 | > 100 | 0.0209 | 20.3 | > 100 | < 0.01 | < 0.01 | < 0.01 | < 0.01 | < 0.01 | < 0.01 | < 0.01 | < 0.01 | < 0.01 | < 0.01 |
| Cc1cc(NS(=O)(=O)c2ccc(-c3cnc(C4CC4)o3)cc2)ccc1Cl | 0.676 | 3.38 | 14.9 | 13.4 | > 52.1 | 45.6 | 12.3 | 15.9 | 11.5 | > 41.1 | 0.0828 | 0.0761 | 0.368 | 0.329 | 0.0919 | 0.192 | 0.274 | 0.264 | 0.117 | 0.253 |
| Cn1cc(Nc2nccc(-c3ccc4c(c3)CN(C3COC3)CC[C@H]4NC(=O)c3cn(C(C)(C)C)nn3)n2)cn1 | > 100 | > 100 | > 100 | > 100 | > 100 | > 100 | > 100 | > 100 | > 100 | > 100 | 76.5 | 96.1 | > 100 | > 100 | > 100 | 36.6 | > 100 | 73.6 | 23.1 | 26.3 |
| CN1C(=O)[C@@H](CC2CCCC2)N(C2CCCC2)c2nc(Nc3cc(Cl)c(O)c(Cl)c3)ncc21 | > 100 | > 100 | 86.9 | 30.4 | 49 | 62.1 | 27.4 | > 100 | 32.9 | 84.2 | 35.4 | 10.8 | 21.6 | 10.4 | 13 | 22.2 | 18.6 | 13.1 | 11.1 | 17.4 |
| CC(C)(Oc1cccc(N2CCC[C@@H](C(=O)N(Cc3ccc(-c4cn[nH]c4)cc3)C3CC3)C2)c1)C(=O)N1CCNCC1 | 30.1 | 26 | 26.3 | 27.8 | 31.3 | 28.6 |  | 30.1 | 22.1 | > 100 | 16 | 12.3 | 12.6 | 7.11 | 7.87 | 14.9 | 24.1 | 12.6 |  | 10.3 |
| CCN(CC)CCOc1ccc(/C(=C(\C)Cc2ccc(OC)cc2)c2ccc(O)cc2)cc1 | 4.81 | 3.82 | 3.09 |  | 3.88 | 3.62 | 3.32 |  | 3 | 5.1 | 1.38 | 1.89 | 1.63 | 1.79 | 1.39 |  | 2.19 |  | 1.81 | 1.63 |
| COc1ccc(-c2cc(-c3ccc(Cl)cc3)nc(SCCCC(=O)NO)n2)cc1OC | 2.8 | 4.05 | 7.34 | > 100 | 7.44 | > 100 | 2.86 |  | 2.4 | 33.4 | 1.22 | 1.3 | 0.799 | 0.946 | 0.354 |  | 0.488 | 0.433 | 1.01 | 1.03 |
| N#CC(Cl)CS(=O)(=O)c1ccccc1 (stereo not drawn) | 30.9 | 2.26 | 44.7 | 12.2 | 14.1 | 12.1 | 26.5 | 9.59 | 29.6 |  |  |  |  |  |  |  |  |  |  |  |
| COc1c(CC(C)=O)c2ccccc2n1C(C)=O | > 100 |  | > 100 | > 100 | > 100 | > 100 | > 100 | > 100 |  | > 100 |  |  |  |  |  |  |  |  |  |  |
| O=C(CCl)N1CCN(c2ccccc2)CC1 | 47.2 |  | 34.4 | 35.5 | 85.5 | > 100 |  | 35.2 | 31.1 | > 100 |  |  |  |  |  |  |  |  |  |  |
| N#Cc1ncc(-c2ccc(C(F)(F)F)cc2)c(NC2CCCCCC2)n1 | > 100 | > 100 |  | > 100 | > 100 | > 100 | > 100 | > 100 | > 100 | > 100 | 21.4 | 6.02 |  | 4.99 | 16.6 | 38.5 | 9.97 | 5.25 | 24.5 | 33.5 |
